These results are taken from US5580854A, “Substrate-related peptidyl-aldehyde inhibitors of the proteolytic activity of the multicatalytic proteinase complex” (Mount Sinai School of Medicine of The City University of …, priority 1994, dated 1996).

For assay [1], the target named is T1, PGPH component of the multicatalytic proteinase complex (MPC) (Bos taurus, UniProt Q3MHN0).
T1 construct: The MPC was isolated from frozen bovine pituitaries; tissue PelFreeze, Inc. (Rogers, Ark.) (supplier of the tissue; the enzyme was purified in house); host or cells: bovine pituitaries
The experiment in a line: PGPH activity of the MPC with Cbz-Leu-Leu-Glu-2NA; IC50. The assay is classed as biochemical, bovine. To be noted: substrate Cbz-Leu-Leu-Glu-2NA (0.2 to 0.6 mill); inhibitor concentration giving 50% inhibition; read-out: IC50, PGPH component. The text has this: (§1) The MPC was isolated from frozen bovine pituitaries, obtained from PelFreeze, Inc. (Rogers, Ark.) essentially as described in Orlowski & Michaud, Biochemistry 28:9270-9277 (1989), incorporated herein by reference.
(§2) The substrates Cbz-Gly-Gly-Leu-pNA, Cbz-D-Ala-Leu-Arg-2NA and Cbz-Leu-Leu-Glu-2NA were used to determine the activities of the ChT-L, T-L and PGPH components of the MPC, respectively, as previously described by Wilk and Orlowski, J. Neurochem. 35:1172-1182 (1980) and J. Neurochem 40:842-849 (1983), where pNA is p-nitroaniline and 2NA is 2-naphthylamide.The rate of release of the chromogenic group (aromatic amine) was measured after diazotization (Goldbarg & Rutenburg, Cancer 11:283-291 (1958) Bratton & Marshall, J. Biol. Chem. 128:537-550 (1939)).
(§3) Reaction mixtures contained 0.4 to 0.8 mM substrate, Tris-HCl buffer (0.05M; pH 8.0) and enzyme (1 to 3 μg) in a final volume of 0.25 ml. Incubations were at 37° C. The reactions were stopped by addition of an equal volume of 10% trichloroacetic acid and diazotization was then carried out.
Due to the sigmoidal relationship between reaction rate and substrate concentration for the PGPH activity, only IC50 values (inhibitor concentration giving 50% inhibition) at a substrate concentration of 0.64 mM were determined. […] Some inhibition of the ChT-L activity was also observed, although the Ki for this component was almost 20 times higher than that for the other three activities. […] Indeed, at the concentrations used, each of the inhibitors produced some activation of the T-L activity (data not shown).

For assay [2], the target named is T2, ChT-L component of the multicatalytic proteinase complex (MPC) (Bos taurus, UniProt Q32KL2).
T2 construct: The MPC was isolated from frozen bovine pituitaries; tissue PelFreeze, Inc. (Rogers, Ark.) (supplier of the tissue; the enzyme was purified in house); host or cells: bovine pituitaries
The assay is described as follows: ChT-L activity of the MPC with Cbz-Gly-Gly-Leu-pNA; Ki by Dixon plots. The format is biochemical, bovine. To be noted: substrate Cbz-Gly-Gly-Leu-pNA (0.1 to 0.4 MM); mean of 3 to 6 experiments ± SEM.
Source text: as §1, §2, §3
(§4) Inhibition constant (K1) values for the inhibitors of the present invention towards the various proteolytic activities of the MPC were determined by the method of Dixon, Biochem. J. 55:170-171 (1953). Plots of 1/v vs [I] were made at three (3) different synthetic substrate concentrations and six (6) different inhibitor concentrations [I]. Linear regression analysis gave generally correlation coefficients better than 0.99.
(§5) Inhibition was tested with and without preincubation of the MPC with the inhibitors of the invention. No increase in inhibition was observed after preincubation of the enzyme with the inhibitor for up to 30 min, indicating absence of slow binding phenomena and a rapid equilibration between enzyme and inhibitor.
(§6) Table II provides a summary of the Ki measurements for the various peptidyl aldehydes of the invention synthesized in accordance with Examples 2 and 3.

Assay [3] addresses T3, multicatalytic proteinase complex (MPC) (Bos taurus, UniProt Q2TBP0+Q32KL2+Q3MHN0).
T3 construct: The MPC was isolated from frozen bovine pituitaries; tissue PelFreeze, Inc. (Rogers, Ark.) (supplier of the tissue; the enzyme was purified in house); host or cells: bovine pituitaries
The experiment in a line: β-casein degradation by the MPC, HPLC. The format is biochemical, bovine. To be noted: 200 μM inhibitor, 30 min incubation, β-casein 200 μg, 20 mM Mg2+, MPC 30 μg. On the procedure: as §1
In vitro protein degrading activity of the MPC, and the effects of the various inhibitors of the present invention on such activity, was determined using β-casein and histone H3 as proteolytic substrates. For determining protein degrading activity in the presence and absence of inhibitors, incubation mixtures contained Tris-HCl buffer (0.05M, pH 8.0), β-casein or histone H3, 20 mM Mg^2+ where indicated, and inhibitor dissolved in dimethylsulfoxide, where indicated. In control samples, the inhibitor was replaced by an equal volume of dimethylsulfoxide alone.
In order to measure proteolysis by the MPC, and its inhibition by the inhibitors of the invention, aliquots of the reaction mixtures were removed after various incubation times and subjected to HPLC on a Deltapak column (C4; 5 μm; 300 A; 3.9×150 mm Waters). Elution of histone H3 was carried out with a linear gradient over 30 min. established between 30 and 50% acetonitrile (v/v) in water containing 0.1% trifluoroacetic acid (v/v) at a flow rate of 1 ml/min. Elution of β-casein was carried with a linear gradient established between 10 and 45% acetonitrile (v/v) in water containing 0.1% trifluoroacetic acid (v/v). The rate of protein degradation was determined by measuring the decrease of the peak height of the protein compared with controls in which the enzyme was omitted. Alternatively degradation of the proteins was determined by integrating the area under the peak of the protein at time zero and determining the decrease of the area after incubation with the enzyme.
FIG. 1 depicts the inhibition of β-casein degradation by Cbz-Gly-Pro-Ala-Leu-CHO. HPLC analyses were carried out on samples that had been incubated in the absence and presence of the inhibitor. Incubation mixtures contained β-casein (200 μg), 20 mM Mg^2+, MPC (30 μg) and various concentrations of, inhibitor, if used, in 2 μl of Me2 SO. […]

For assay [4], the target named is T4, SNAAP component of the multicatalytic proteinase complex (MPC) (Bos taurus, UniProt Q2TBP0+Q32KL2+Q3MHN0).
T4 construct: The MPC was isolated from frozen bovine pituitaries; tissue PelFreeze, Inc. (Rogers, Ark.) (supplier of the tissue; the enzyme was purified in house); host or cells: bovine pituitaries
The experiment in a line: Activity of the SNAAP component of the MPC, coupled two step reaction with aminopeptidase N; Ki by Dixon plots. The format is biochemical, bovine. To be noted: substrate Cbz-Gly-Pro-Ala-Gly-Gly-pAB (1 to 4 mill); mean of 3 to 6 experiments ± SEM.
Source text: as §1
(§7) Cbz-Gly-Pro-Ala-Leu-Gly-pAB and Cbz-Gly-Pro-Ala-Gly-Gly-pAB, where pAB is p-aminobenzoate, were used as convenient substrates for the determination of the activity of the BrAAP and SNAAP components respectively. The BrAAP component cleaves exclusively the Leu-Gly bond in Cbz-Gly-Pro-Ala-Leu-Gly-pAB, whereas the SNAAP component cleaves the Gly-Gly bond in Cbz-Gly-Pro-Ala-Gly-Gly-pAB.
(§8) A coupled two step reaction in the presence of excess aminopeptidase N (AN) was used for the determination of the BrAAP and SNAAP activities as described previously (Orlowski et al., Biochemistry 32:1563-1572 (1993)). Aminopeptidase N was purified from hog kidneys as described by Pfleiderer, Meth. Enzymol. 19:514-521 (1970) and freed from the contaminating metalloendopeptidase (EC 3.4.24.11) as previously described (Almenoff & Orlowski, Biochemistry 22:590-599 (1983)).
as §4, §5, §6

Assay [5] has as its target T5, BrAAP component of the multicatalytic proteinase complex (MPC) (Bos taurus, UniProt Q2TBP0+Q32KL2+Q3MHN0).
T5 construct: The MPC was isolated from frozen bovine pituitaries; tissue PelFreeze, Inc. (Rogers, Ark.) (supplier of the tissue; the enzyme was purified in house); host or cells: bovine pituitaries
The assay is described as follows: Activity of the BrAAP component of the MPC, coupled two step reaction with aminopeptidase N; Ki by Dixon plots. To be noted: substrate Cbz-Gly-Pro-Ala-Leu-Gly-pAB (1 to 4 mill); mean of 3 to 6 experiments ± SEM; read-out: Ki, BRAAP component. The format is biochemical, bovine.
Source text: as §1, §7, §8, §4, §5, §6

The target in assay [6] is T1, PGPH component of the multicatalytic proteinase complex (MPC). Particulars: cited from earlier work; for increase of the PGPH activity: low concentrations of SDS (0.02%) or fatty acids, depending on the substrate concentration.
Assay [7] deals with T5, BrAAP component of the multicatalytic proteinase complex (MPC). To be noted: cited from earlier work.
Assay [8] concerns the target T6, BRAAP component of the MPC (Bos taurus, UniProt Q2TBP0+Q32KL2+Q3MHN0).
T6 construct: The MPC was isolated from frozen bovine pituitaries; tissue PelFreeze, Inc. (Rogers, Ark.) (supplier of the tissue; the enzyme was purified in house); host or cells: bovine pituitaries
To be noted: data from Orlowski et al., Biochemistry 32:1563-1572 (1993), cited from earlier work; for Km: [S] 1.6-8.0.

Where two headings read alike, the source gives them in different places. Peptide text beside a SMILES is read from it. * marks the point of attachment. Cbz = O=C(OCc1ccccc1)*

Turning to `CC(C)C[C@@H](C=O)NC(=O)[C@H](C)NC(=O)[C@@H]1CCCN1C(=O)CNC(=O)OCc1ccccc1` [Cbz-Gly-Pro-Ala-Leu-CHO] (Cbz-GPAL-aldehyde), the IC50 in assay [1] was determined as 60 µM. In addition, the Ki turned out to be 471 ± 48 µM in assay [2], 17.2 ± 3.4 µM in assay [4] and 13.9 ± 1.9 µM in assay [5]. Further, the “β-casein substrate remaining intact” value in assay [3] is approximately 90%.
For the compound `C[C@H](NC(=O)[C@@H]1CCCN1C(=O)CNC(=O)OCc1ccccc1)C(=O)N[C@H](C=O)Cc1ccccc1` [Cbz-Gly-Pro-Ala-Phe-CHO] (Cbz-GPAF-aldehyde), the Ki in assay [2] turned out to be 1850 ± 750 µM; in assay [4], 406 ± 54 µM; in assay [5], 305 ± 77 µM.
In the case of `CC(C)[C@@H](C=O)NC(=O)[C@H](Cc1ccccc1)NC(=O)[C@@H]1CCCN1C(=O)CNC(=O)OCc1ccccc1` [Cbz-Gly-Pro-Phe-Val-CHO] (Cbz-GPFV-aldehyde), in assay [1], the IC50 came to 62 µM. Besides, the values for the inhibition constant Ki in assay [2], in assay [4] and in assay [5] were 331 ± 22 µM, 24 ± 0.84 µM and 47.3 ± 4.9 µM, respectively.
Take `CC(C)C[C@@H](C=O)NC(=O)[C@H](C)NC(=O)CNC(=O)[C@@H]1CCCN1C(=O)OCc1ccccc1` [Cbz-Pro-Gly-Ala-Leu-CHO] (Cbz-PGAL-aldehyde): the inhibitory constant (Ki) in assay [2] was 16.4 ± 2.7 µM; in assay [4], 36.7 ± 3.6 µM; in assay [5], 104 ± 2.3 µM.
Consider `O=c1oc(Cl)c(Cl)c2ccccc12` [DCI, 3,4-dichloroisocoumarin], for which the “inactivation of the PGPH activity” value in assay [6] (DCI (10 μM)) is listed as “almost complete inactivation”. Besides, the “activation of the BrAAP component” value in assay [7] (treatment of the MPC with DCI (10 μM)) was 10 fold.
As to `CCCCCCCCCCCCOS(=O)(=O)[O-].[Na+]` [SDS, sodium dodecyl sulfate], the “increase of the PGPH activity” value in assay [6] is on record as approximately 10 fold. The “activation of the BrAAP component” value in assay [7] (treatment of the MPC with SDS, synthetic substrates) is listed as approximately 50 fold.
In the case of `CCCCCCCCCCCC(=O)O` [lauric acid], the “increase of the PGPH activity” value in assay [6] was approximately 10 fold.
Regarding Cbz-Gly-Pro-Ala-Leu-Ala-pAB, in assay [8], the Km was 6.7 mM, the kcat was 5.2 s⁻¹ and the “kcat /Km” value is 780 s⁻¹ M⁻¹.
As to “Cbz-Gly-Pro-Ala-Leu-Gly-p-aminobenzoate [Cbz-Gly-Pro-Ala-Leu-Gly-pAB]”, in assay [8], the Michaelis constant (Km) is 5.2 mM, the kcat is 3.75 s⁻¹ and the “kcat /Km” value was 720 s⁻¹ M⁻¹.
